Data published in US8445536B2, “Arginine-containing compositions and methods for increasing blood flow using same” (Ajinomoto Co., Inc., priority 2005, dated 2013).
Like-named read-outs stand apart in the source and are kept apart here.

Legend:
[1] = tested on: male SD rats; experiment: Test Example 5: amounts of Evans' Blue delivered to various organs after arginine
Description: (b) Operation: A catheter was inserted into the jugular vein of rats under anesthesia. Then, a blood sample was collected from the catheter.
After sufficient time, the rats were euthanasized, and the muscles, digestive tracts, liver, kidneys, spleen, heart, brain, adipose tissues, and abdominal skin were extracted. Then, Evans' Blue was released by immersing each organ in a formalin solution, and the amount of Evans' Blue in each organ was calculated from the absorbance obtained by the spectrophotometer.

[2] = Test Example 3: concentration of free arginine in the blood plasma on intravenous arginine; assay type: in vivo, rats; conditions: for concentration at 10 min / concentration at 20 min / concentration at 30 min / concentration at 40 min: Sprague-Dawley, rat, plasma, iv
Excerpt: (c) Rats were anesthetized by pentobarbital. […] (b) Administration: […]

[3] = tested on: male SD rats; experiment: Test Example 1: blood flow at the skin of the lower thighs, laser Doppler blood-flowmeter; conditions: for Maximum increasing rate of blood flow (Before administration: 100%): skin of lower thighs
[4] = tested on: male SD rats; experiment: Test Example 2: variation of blood pressure; conditions: 50 or 150 mg of arginine per 1 kg body weight, iv over 30 min
[5] = tested on: male SD rats; experiment: Test Example 4: blood pressure when administering arginine and glutamine to rats; conditions: 50 mg arginine/kg over 30 min; 20 to 30 min after injection; average of 3 rats
[6] = tested on: male SD rats; experiment: Test Example 1: blood pressure when administering arginine to rats (arterial catheter); conditions: 500 mg of arginine per 1 kg body weight, iv over 30 min
[7] = tested on: human beings; conditions: human beings of average weight 78 kg, cited from earlier work
[8] = tested on: male SD rats; experiment: Test Example 2: blood flow in the capillaries of various organs, microsphere method
Description: (b) Operation: Catheters were inserted into the carotid artery, jugular vein, and femoral artery of rats under anesthesia.
After taking enough time from the second administration of the microsphere, the rats were euthanasized, and the muscles, digestive tracts, liver, kidneys, spleen, heart, brain, adipose tissues, and abdominal skin were extracted. Then, the microspheres contained in each organ were collected and the rate of change in blood flow was calculated for each organ from the amount of the microspheres.

[9] = 50 mg of arginine per 1 kg body weight
[10] = 150 mg of arginine per 1 kg body weight

## N=C(N)NCCC[C@H](N)C(=O)O [arginine]
[1]; 50 or 150 mg of arginine per 1 kg, muscles, digestive tract, liver, kidneys, spleen, brain, adipose tissues, skin
  delivered amounts of Evans' Blue to the organs (tendency): increased
[1]; Abdominal skin, 150 mg/kg of BW
  Changes in the amounts of Evans' Blue after administering arginine (before administration 100%): 207%
[1]; Adipose tissues, 50 mg/kg of BW
  Changes in the amounts of Evans' Blue after administering arginine (before administration 100%): 430%
[1]; Adipose tissues, 150 mg/kg of BW
  Changes in the amounts of Evans' Blue after administering arginine (before administration 100%): 160%
[1]; Back skin, 50 mg/kg of BW
  Changes in the amounts of Evans' Blue after administering arginine (before administration 100%): 315%
[1]; Back skin, 150 mg/kg of BW
  Changes in the amounts of Evans' Blue after administering arginine (before administration 100%): 331%
[1]; Brain, 50 mg/kg of BW
  Changes in the amounts of Evans' Blue after administering arginine (before administration 100%): 169%
[1]; Duodenum, 50 mg/kg of BW
  Changes in the amounts of Evans' Blue after administering arginine (before administration 100%): 143%
[1]; Duodenum, 150 mg/kg of BW
  Changes in the amounts of Evans' Blue after administering arginine (before administration 100%): 85%
[1]; Gastrocnemius muscle, 50 mg/kg of BW
  Changes in the amounts of Evans' Blue after administering arginine (before administration 100%): 219%
[1]; Gastrocnemius muscle, 150 mg/kg of BW
  Changes in the amounts of Evans' Blue after administering arginine (before administration 100%): 154%
[1]; Heart, 50 mg/kg of BW
  Changes in the amounts of Evans' Blue after administering arginine (before administration 100%): 87%
[1]; Heart, 150 mg/kg of BW
  Changes in the amounts of Evans' Blue after administering arginine (before administration 100%): 85%
[1]; Kidneys, 50 mg/kg of BW
  Changes in the amounts of Evans' Blue after administering arginine (before administration 100%): 161%
[1]; Liver, 50 mg/kg of BW
  Changes in the amounts of Evans' Blue after administering arginine (before administration 100%): 181%
[1]; Liver, 150 mg/kg of BW
  Changes in the amounts of Evans' Blue after administering arginine (before administration 100%): 173%
[1]; Spleen, 50 mg/kg of BW
  Changes in the amounts of Evans' Blue after administering arginine (before administration 100%): 101%
[1]; Spleen, 150 mg/kg of BW
  Changes in the amounts of Evans' Blue after administering arginine (before administration 100%): 92%
[2]; [9]
  rise of the concentration of free arginine in the blood plasma at maximum: 46.1 micrograms per 1 mL
[2]; [10]
  rise of the concentration of free arginine in the blood plasma at maximum: 177.5 micrograms per 1 mL
[2]; 50 mg/kg
  concentration at 10 min: 43.6 µg/mL
  concentration at 20 min: 46.1 µg/mL
  concentration at 30 min: 38.8 µg/mL
  concentration at 40 min: 15.7 µg/mL
[2]; 150 mg/kg
  concentration at 10 min: 156 µg/mL
  concentration at 20 min: 115 µg/mL
  concentration at 30 min: 178 µg/mL
  concentration at 40 min: 77.2 µg/mL
[3]; 50 mg arginine/kg iv over 30 min, 20 to 30 min after injection
  Maximum increasing rate of blood flow (Before administration: 100%): +43.9%
[3]; 150 mg arginine/kg iv over 30 min, 20 to 30 min after injection
  Maximum increasing rate of blood flow (Before administration: 100%): +29.3%
[3]; 500 mg arginine/kg iv over 30 min, 50 to 60 min after injection
  Maximum increasing rate of blood flow (Before administration: 100%): +85.0%
[3]; all rats given 50 mg or more of arginine per 1 kg body weight
  amount of blood flowing to the skin of the lower thighs: increased
[4]
  variation of blood pressure: ≤ 10 mmHg
[5]
  Maximum variation of blood pressure: +11.4 mmHg
[6]
  death due to rapid reduction of blood pressure: Two out of three rats died
[7]; 6 g arginine parenterally
  vascular resistance: did not cause either effect
[7]; 30 g arginine parenterally
  vascular resistance: lowered
[8]; [9]
  blood flow in the capillaries of the muscles and the brain: significantly increased
[8]; [10]
  blood flow in the capillaries, all organs measured: increased for all organs measured
[8]; Abdominal skin, 50 mg/kg of body weight
  Changes in blood flow after the administration of arginine (before administration 100%): 117%
[8]; Abdominal skin, 150 mg/kg of body weight
  Changes in blood flow after the administration of arginine (before administration 100%): 134%
[8]; Adipose tissues, 50 mg/kg of body weight
  Changes in blood flow after the administration of arginine (before administration 100%): 99%
[8]; Adipose tissues, 150 mg/kg of body weight
  Changes in blood flow after the administration of arginine (before administration 100%): 116%
[8]; Back skin, 50 mg/kg of body weight
  Changes in blood flow after the administration of arginine (before administration 100%): 107%
[8]; Back skin, 150 mg/kg of body weight
  Changes in blood flow after the administration of arginine (before administration 100%): 118%
[8]; Brain, 50 mg/kg of body weight
  Changes in blood flow after the administration of arginine (before administration 100%): 126%
[8]; Brain, 150 mg/kg of body weight
  Changes in blood flow after the administration of arginine (before administration 100%): 137%
[8]; Duodenum, 50 mg/kg of body weight
  Changes in blood flow after the administration of arginine (before administration 100%): 123%
[8]; Duodenum, 150 mg/kg of body weight
  Changes in blood flow after the administration of arginine (before administration 100%): 142%
[8]; Heart, 50 mg/kg of body weight
  Changes in blood flow after the administration of arginine (before administration 100%): 126%
[8]; Heart, 150 mg/kg of body weight
  Changes in blood flow after the administration of arginine (before administration 100%): 140%
[8]; Kidneys, 50 mg/kg of body weight
  Changes in blood flow after the administration of arginine (before administration 100%): 86%
[8]; Kidneys, 150 mg/kg of body weight
  Changes in blood flow after the administration of arginine (before administration 100%): 91%
[8]; Liver, 50 mg/kg of body weight
  Changes in blood flow after the administration of arginine (before administration 100%): 92%
[8]; Liver, 150 mg/kg of body weight
  Changes in blood flow after the administration of arginine (before administration 100%): 101%
[8]; Muscles, 50 mg/kg of body weight
  Changes in blood flow after the administration of arginine (before administration 100%): 164%
[8]; Muscles, 150 mg/kg of body weight
  Changes in blood flow after the administration of arginine (before administration 100%): 157%
[8]; Spleen, 50 mg/kg of body weight
  Changes in blood flow after the administration of arginine (before administration 100%): 104%
[8]; Spleen, 150 mg/kg of body weight
  Changes in blood flow after the administration of arginine (before administration 100%): 115%
